Reference: patent publication US20070141158A1, “Amphiphilic heparin derivative formed by coupling a heparin with a bile acid” (ETHYPHARM, priority 2003, published 2007)

Assay: Incorporation (solubilization) of hydrophobic active ingredients into aqueous solution of heparin hydrophobized with cholic acid (HEP19CHO), dissolution method
Type: physicochemical
Conditions: for increase of quantity in solution: HEP19CHO (Cp=8.6 mg/ml) after 6 days of incorporation, versus water (FIG. 4)
Description: An example of a method of incorporation by direct dissolution is described below. 30 mg of hydrophobized heparin are introduced into a tube and 3 ml of distilled water are added thereto. After dissolution, a large excess of active ingredient (15 to 30 mg) is introduced into the mixture.
A phase of stirring the mixture obtained is carried out by means of a magnetic stirrer bar for several days. The mixture is then centrifuged and the supernatant is passed through a 0.45 μm filter. The quantity of active ingredient solubilized in the solutions of hydrophobized heparin may be determined by UV/visible spectroscopy or by HPLC.
The nonsolubilized active ingredient is removed after filtration of the solutions on a membrane having a porosity of 0.45 μm. The quantity of active ingredient in solution is then determined. Having determined the quantities solubilized in water and those dissolved in the hydrophobic domains, it is then possible to calculate a partition coefficient hydrophobic domains/water which is called Log P′ by analogy with Log P.
Indeed, the relative solubility of molecules between an oily phase and an aqueous phase is described by the partition coefficient P which represents the distribution of the molecules between two solvents, generally water and octanol. The use of its logarithm, log P, is often preferred. […] Likewise for Log P′ which expresses the ratio of the solubilities of the active agent in water and in the solution of hydrophobized heparin.
The incorporation of active ingredients was essentially carried out by the dissolution method. In this method, the compound to be incorporated is placed in solid form in a tube containing water or a colloidal solution of hydrophobized heparin, at the concentration Cp (mg/ml).
The mixing is performed with stirring at room temperature for various times. The compound to be incorporated remains at saturating concentration in the medium. At the end of the incorporation period, the tubes are subjected to a centrifugation step and the supernatants are filtered on 0.45 μm filters and assayed. Control solutions (water or nonhydrophobized heparin) are treated in the same manner.
The quantity of active ingredient incorporated into the various media is quantified by HPLC and/or by measuring the UV absorbance.
Thus, the incorporation is expressed in milligram of active ingredient per gram of polymer (mg/g P) or in micromole of active ingredient per gram of polymer (μmol/g P). This incorporation level is calculated by taking the ratio between the concentration of the active ingredient in solution and the concentration of the polymer. […] The difference in concentration of active ingredients in water and in a solution of hydrophobized heparin represents the quantity of active ingredient effectively present in hydrophobic micro-domains formed by the grouping together of cholic acid residues.

| level of incorporation into the hydrophobic domains (HEP19CHO 8 mg/ml, after 3 days) [mg/g P] | increase of quantity in solution | gain in solubility relative to water (HEP19CHO calcium salt, 8 mg/ml, after 3 days (FIG. 3)) | concentration of carbamazepine present in the hydrophobic domains (HEP19CHO solution 8 mg/ml, after 3 days, HEP19CHO solution minus aqueous phase) [µg/mL] | times as soluble in a solution of hydrophobized heparin as in water (HEP19CHO solution versus water) | Structure (SMILES) | affinity for the hydrophobic domains (among the molecules tested) (HEP19CHO, Table 5 molecules) |
| --- | --- | --- | --- | --- | --- | --- |
| 70 | increased ten fold | exceeds 500% | 560 |  | NC(=O)N1c2ccccc2C=Cc2ccccc21 [Carbamazepine] | highest affinity for the hydrophobic domains |
|  | > 2000 fold |  |  | more than 2000 times | CCC(C)n1ncn(-c2ccc(N3CCN(c4ccc(OCC5COC(Cn6cncn6)(c6ccc(Cl)cc6Cl)O5)cc4)CC3)cc2)c1=O (stereo not shown) [Itraconazole] |  |
